Here are results for three compounds from article PMC10051798, “Thiosemicarbazide Derivatives Targeting Human TopoIIα and IDO-1 as Small-Molecule Drug Candidates for Breast Cancer Treatment” (International Journal of Molecular Sciences, 2023).

≈ marks a conversion by molar mass, not a printed value. Where “and” joins values, the source holds several entries; their conditions need not be identical. Equal values may be shown once.

The subject of one series is caspase-8 in MCF-7 cells. Description: FLICA caspase-8 activity flow cytometry, MCF-7. The class given is cell-based, human. Conditions: MCF-7, 20 µg/mL, 24 h. Here is the method: (§1) Caspase-8 and caspase-9 activitiesweremeasured using the FLICA Caspase-8 Assay Kit and FLICA Caspase-9 Assay Kit (ImmunoChemistry Technologies, Bloomington, MN, USA), respectively, according to the manufacturer’s protocol. In brief, MCF-7 and MDA-MB-231 breast cancer cells (1 × 10^6) were washed with cold PBS twice and re-suspended in buffer. Then, 5 μL of diluted FLICA reagent and 2 μL of Hoechst 33,342 were added to 93 μL of cell suspension, mixed by pipetting and incubated for 60 min at 37 °C. After incubation, the cells were washed twice with 400 μL of apoptosis wash buffer and centrifuged at 300× g. After the last wash, the cells were resuspended in 100 μL of apoptosis wash buffer supplemented with 10 μg/mL of PI. Analyses were performed using aBD FACSCanto II flow cytometer, and the results were analyzed with FACSDiva software (version 6.1.3, BD BiosciencesSystems, San Diego, CA, USA). To identify the involvement of caspases in apoptosis induced by compounds 1–3, the investigated breast cancer cells were pretreated with the pan-caspase inhibitor, Z-VAD-FMK (100 µM) (Sigma Aldrich, St. Louis, MO, USA), as described in [28]. The activation of caspases-8 and -9 was detected as described above.
In general terms: A flow cytometer gives signals particle by particle.

Series [1] concerns MCF-7 cells. Description: Autophagy Assay (Red kit) flow cytometry, MCF-7. The class given is cell-based, human. The note with it: 24 h. On the procedure:
(§2) In order to evaluate the number of autophagosomes and autolysosomes in breast cancer cells incubated with the investigated compounds, anAutophagy Assay (Red kit) was performed (ImmunoChemistry Technologies, Bloomington, MN, USA). In short, the unfixed cells were washed and resuspended in PBS with the added autophagy probe, Red solution. Next, the cells were incubated for 30 min at 37 °C in the dark, washed, resuspended in cellular assay buffer and the provided fixative was added at a volume/volume ratio of 1:5. The samples were measured immediately after preparation by flow cytometry using the BD FACSCanto II system (BD Biosciences Systems, San Diego, CA, USA). The percentage of cells with autophagy was calculated using FACSDiva software (version 6.1.3, BD Biosciences Systems, San Diego, CA, USA).

The subject of series [2] is MDA-MB-231 cells. As to the kind of experiment: Autophagy Assay (Red kit) flow cytometry, MDA-MB-231. The class given is cell-based, human. Conditions: 24 h. Here is the method:
as §2

The test system of series [3] is MCF-7 cells. As to the kind of experiment: Annexin V/propidium iodide flow cytometry (apoptosis), MCF-7. It is filed as cell-based, human. The note with it: MCF-7, 20 µg/mL, 24 h. The source says: (§3) Flow cytometry analyses for apoptosis induction by the compounds 1–3 and etoposide wereperformedusing an FITC Annexin V Apoptosis Detection Kit II (BD Pharmingen, San Diego, CA, USA). The rationale of the assay is based on the externalization of phosphatidylserine on the surface of apoptotic cells. In early and late apoptotic cells, the phosphatidylserine translocates into the outer layer of the membrane, which allows annexin V-FITC to attach. Propidium iodide (PI) is, in turn, a fluorescent dye that penetrates into the late apoptotic and necrotic cells with impaired cell membrane integrity. Therefore, using annexin V and PI, it is possible to distinguish four groups of cells: living cells, early apoptotic cells, late apoptotic cells and necrotic cells. MCF-7 and MDA-MB-231 cells were incubated with 10 and 20 µg/mL of compounds 1–3 and etoposide (reference drug) for 24 h. After incubation, the cells were dyed with FITC-labeled annexin V and PI. The analysis was performed on a BD FACS Canto II flow cytometer using FACSDiva software (version 6.1.3, BD Biosciences Systems, San Diego, CA, USA). The equipment was calibrated with BD Cytometer Setup and Tracking Beads (BDBiosciences, San Diego, CA, USA).

The subject of series [4] is MDA-MB-231 cells. As to the kind of experiment: Annexin V/propidium iodide flow cytometry (apoptosis), MDA-MB-231. The class given is cell-based, human. The note with it: MDA-MB-231, 20 µg/mL, 24 h.
Excerpt: as §3

Series [5] concerns caspase-8 in MDA-MB-231 cells. Description: FLICA caspase-8 activity flow cytometry, MDA-MB-231. The class given is cell-based, human. The note with it: MDA-MB-231, 20 µg/mL, 24 h. Here is the method: as §1
The target of a further series is recombinant CYP2D6 (Homo sapiens, UniProt P10635). As to the kind of experiment: Vivid CYP2D6 Cyan screening kit. The note with it: 10 µM, positive control.
Series [6] addresses T1, MDR1 (p-glycoprotein) in MDA-MB-231 cells (Homo sapiens, UniProt P08183).
T1 construct: endogenous in cells; host or cells: MCF-7 and MDA-MB-231 cells
As to the kind of experiment: MDR transporter activity assay, MDR1 in MDA-MB-231. The class given is cell-based. Conditions: MDA-MB-231, 20 µg/mL, 24 h. On the procedure: An MDR Assay kit (Abcam, Cambridge, UK) was used following the manufacturer’s instructions. MCF-7 and MDA-MB-231 cells were incubated with compounds 1–3 (10 μg/mL and 20 μg/mL). After 24 h of incubation, the test cells were washed twice with 5 mL of PBS by centrifugation at 1200 rpm for 10 min. The supernatants were discarded and the cells were counted using a Scepter 3.0 handheld automated cell counter (Milipore, Burlington, MA, USA). Then, each of the tested samples was divided into three parts and analyzed. Tomeasure the activity of MDR1, MRP1 and BCRP (tubes 1–12), 5 μL of verapamil (MDR1 inhibitor) was added into tubes 1–3, 5 μL of MK-571 (MRP1 inhibitor) was added into tubes 4–6, 5 μL of noviobiocin (BCRP inhibitor) was added into tubes 7–9 and 125 μL DMEM with 1 μL of DMSO was added into tubes 10–12. Then, the samples were incubated at 37 °C for five minutes. After this time, 125 μL of Efflux Green Detection Reagent was added into tubes 1–12 and the samples were incubated for 30 min at 37 °C. After 25 min of incubation, 5 μL of PI was added to each tube. Thereafter, the samples were centrifuged for 10 min at 1200 rpm. The supernatants were discarded and the cells were resuspended in 500 μL of PBS and run on the flow cytometer immediately. Measurements were conducted on a BD FACSCanto II flow cytometer using FACSDiva software (version 6.1.3, BD Biosciences, San Diego, CA, USA). […] The calculations followed these formulas:MAFMDR1= 100 × (FMDR1 − F0)/FMDR1 MAFMRP= 100 × (FMRP − F0)/FMRP MAFBCRP= 100 × (FBCRP − F0)/FBCRP
• FMDR—MFI with MDR1 inhibitor (verapamil) • FMRP—MFI with MRP inhibitor (MK-571) • FBCRP—MFI with BCRP inhibitor (novobiocin) • F0—MFI without inhibitor
The theoretical range of the MAF values is between 0 and 100.

The test system of another series is MCF-10A cells. As to the kind of experiment: MTT viability assay, normal breast epithelial cells. It is filed as cell-based, human. Here is the method:
Human breast cancer cells, i.e., MCF-7 (estrogen-dependent breast cancer cells) and MDA-MB-231 (estrogen-independent breast cancer cells), as well as normal human breast epithelial cells (MCF-10A) were purchased from the American Type Culture Collection (ATCC, Manassas, VA, USA). MCF-7 and MDA-MB-231 cells were cultured in DMEM (Sigma Aldrich, St. Louis, MO, USA) supplemented with 10% fetal bovine serum (FBS), penicillin (100 U/mL) and streptomycin (100 μg/mL). MCF-10A cells were cultured in Mammary Epithelial Cell Growth Medium supplemented with BPE, hEGF, insulin, hydrocortisone, GA-1000 (Lonza, Basel, Switzerland), 10% fetal bovine serum (FBS), penicillin (100 U/mL) and streptomycin (100 μg/mL). The cells were grown in T25 Cell Culture EasyFlask (Nunc, Roskilde, Denmark) at 37 °C in a humidified atmosphere of 5% CO2.
MTT assays were performed to evaluate the cytotoxic activity of the investigated compounds (1–3) against MCF-10A cells. Asuspension of cells (1 × 10^5 cells/mL) was distributed onto 96-well plates at a volume of 100 μL/well. After attachment, the cells were treated with increased concentrations of the tested compounds in medium containing 2% FBS, and incubated for 24 h. Then, 15 μL of MTT working solution (5 mg/mL in PBS) was added to each well and the plates were incubated for 3 h. Subsequently, 100 μL of 10% SDS solution was added to each well in order to dissolve the formazan formed. After overnight incubation at 37 °C, the absorbance of the obtained solution was measured at λ= 570 nm using a microplate reader (Epoch, BioTek Instruments, Inc., Winooski, VT, USA). At least two independent experiments were performed in triplicate. IC50 values of the tested compounds were calculated using the IC50 online calculator [27].
For orientation: Formazan colour is commonly taken as a measure of viable cells.

The test system of series [7] is MCF-7 cells. More on the design: method as in PMID 36345785. The note with it: MTT; cited from earlier work.
Series [8] has as its system MDA-MB-231 cells. Also noted: method as in PMID 36345785. The note with it: MTT; cited from earlier work.
Series [9] has as its system MCF-7 cells. Description: Cell cycle analysis (PI flow cytometry), MCF-7. It is filed as cell-based, human. Conditions: MCF-7, 20 µg/mL, 24 h. Here is the method:
Cell cycle analyses of MCF-7 and MDA-MB-231 cells treated with compounds 1–3 and etoposide for 24 h were performed using a FACSCanto II flow cytometer (BD Bioscences Systems, San Diego, CA, USA). After incubation, breast cancer cells were trypsinized and fixed with cold ethanol (70%) and stored overnight at −20 °C. After removing ethanol, the cells were washed three times with PBS, treated with 50 μg/mL of DNase-free RNase A Solution (Promega, Madison, WI, USA) and stained with 100 μg/mL of PI. The results of measurements were analyzed using FCS Express 7 software (De Novo Software, Pasadena, CA, USA).

Series [10] deals with MCF-7 cells. Also noted: method as in PMID 36345785. The note with it: BrdU assay; cited from earlier work.

T1 sequence (P08183 whole entry): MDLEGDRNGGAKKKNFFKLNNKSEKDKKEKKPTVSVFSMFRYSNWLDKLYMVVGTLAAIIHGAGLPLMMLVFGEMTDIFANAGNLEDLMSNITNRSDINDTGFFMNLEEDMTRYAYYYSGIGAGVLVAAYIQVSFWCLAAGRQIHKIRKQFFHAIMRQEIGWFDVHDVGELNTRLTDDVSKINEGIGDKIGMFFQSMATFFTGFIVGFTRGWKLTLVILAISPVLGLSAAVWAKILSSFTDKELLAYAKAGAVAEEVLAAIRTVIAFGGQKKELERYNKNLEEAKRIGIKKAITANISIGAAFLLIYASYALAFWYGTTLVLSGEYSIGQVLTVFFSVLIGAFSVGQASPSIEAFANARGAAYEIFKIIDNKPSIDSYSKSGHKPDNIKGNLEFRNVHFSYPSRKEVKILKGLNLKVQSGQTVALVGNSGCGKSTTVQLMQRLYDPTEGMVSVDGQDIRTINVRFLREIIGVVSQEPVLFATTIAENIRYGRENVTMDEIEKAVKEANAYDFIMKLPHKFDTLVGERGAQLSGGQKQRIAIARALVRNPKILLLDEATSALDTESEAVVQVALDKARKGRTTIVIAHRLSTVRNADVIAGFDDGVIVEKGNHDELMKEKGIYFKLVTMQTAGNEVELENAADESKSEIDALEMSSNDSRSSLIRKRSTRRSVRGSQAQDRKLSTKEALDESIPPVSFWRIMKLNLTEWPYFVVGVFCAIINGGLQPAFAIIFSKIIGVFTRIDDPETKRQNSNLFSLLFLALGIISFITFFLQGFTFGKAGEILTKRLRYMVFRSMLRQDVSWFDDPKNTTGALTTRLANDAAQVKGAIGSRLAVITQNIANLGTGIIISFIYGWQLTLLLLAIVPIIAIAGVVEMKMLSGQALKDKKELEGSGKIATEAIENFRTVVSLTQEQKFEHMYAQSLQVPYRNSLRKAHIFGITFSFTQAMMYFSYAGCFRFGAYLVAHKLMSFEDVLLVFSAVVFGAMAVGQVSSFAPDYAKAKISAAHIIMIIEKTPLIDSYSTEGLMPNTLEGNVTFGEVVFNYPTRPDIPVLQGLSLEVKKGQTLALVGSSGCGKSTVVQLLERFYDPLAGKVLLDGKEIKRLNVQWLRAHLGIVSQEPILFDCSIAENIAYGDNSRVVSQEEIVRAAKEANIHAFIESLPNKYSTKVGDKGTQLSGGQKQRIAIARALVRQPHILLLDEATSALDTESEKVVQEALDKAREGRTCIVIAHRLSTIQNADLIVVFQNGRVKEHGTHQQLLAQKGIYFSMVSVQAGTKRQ
Sequence of recombinant CYP2D6 (P10635 whole entry): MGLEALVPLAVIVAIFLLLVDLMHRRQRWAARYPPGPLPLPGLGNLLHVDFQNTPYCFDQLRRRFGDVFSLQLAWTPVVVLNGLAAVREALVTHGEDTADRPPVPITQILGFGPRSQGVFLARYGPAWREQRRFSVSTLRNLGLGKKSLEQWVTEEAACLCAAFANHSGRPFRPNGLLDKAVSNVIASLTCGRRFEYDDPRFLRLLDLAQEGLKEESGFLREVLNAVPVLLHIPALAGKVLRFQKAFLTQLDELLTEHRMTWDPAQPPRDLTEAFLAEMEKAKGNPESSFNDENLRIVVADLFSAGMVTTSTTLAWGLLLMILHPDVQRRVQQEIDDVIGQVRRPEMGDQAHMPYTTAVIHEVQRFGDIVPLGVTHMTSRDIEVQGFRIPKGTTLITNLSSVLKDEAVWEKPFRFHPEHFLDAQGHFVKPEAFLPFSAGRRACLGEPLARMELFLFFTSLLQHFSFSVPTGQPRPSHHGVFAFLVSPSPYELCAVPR
Method for recombinant CYP2D6: According to these assays, the examined compounds are analyzed by their ability to inhibit the production of a fluorescent signal in the reaction between recombinant CYP3A4 or CYP2D6 isozymes and specific Vivid substrates. The experiments were performed in the endpoint mode of the assay, in which solutions of examined compounds were first combined with the Master Pre-mix. After a short incubation, the background fluorescence of the Master Pre-mix and the examined compounds was measured. Next, a mix of the respective Vivid substrate and NADP^+ was added in order to initiate the enzymatic reaction. After 20 min of incubation, the reaction was terminated using a stop solution and the fluorescence was measured using the recommended (by the manufacturer) excitation and emission wavelengths. […] A reaction mixture without tested compounds was used as a negative control and its fluorescence was designated as 100%. The experiments were run in triplicate and the results were presented as means ± SD.

In the case of `COc1cc([C@@H]2c3cc4c(cc3[C@@H](O[C@@H]3O[C@@H]5CO[C@@H](C)O[C@H]5[C@H](O)[C@H]3O)[C@H]3COC(=O)[C@H]23)OCO4)cc(OC)c1O` [etoposide, reference compound], the entries for the “cells with activated caspase-8” value (with caspase-8 in MCF-7 cells; in [5]) were 6.73% and 7.2%, respectively. Further, the “cell population forming autophagosomes and/or autolysosomes” value in the series with MCF-7 cells [1] (MCF-7, etoposide-treated, concentration not specified) is listed as “about 1%”; in the series on MDA-MB-231 cells [2] (MDA-MB-231, etoposide-treated, concentration not specified) it was “about 1%”. In addition, the “apoptotic cells (sum of early and late apoptotic cells)” value in the series with MCF-7 cells [3] and in the series on MDA-MB-231 cells [4] was “about 8.5%” throughout.
Regarding `C=C[C@H]1C[N@@]2CC[C@H]1C[C@@H]2[C@@H](O)c1ccnc2ccc(OC)cc12` [guanidine], the “CYP2D6 activity vs. negative control” value at recombinant CYP2D6 turned out to be 11.08 ± 0.81%.
In general, IC50 refers to the concentration at which inhibition is half-maximal. As for `CC(C)c1cccc(C(C)C)c1NC(=S)NNC(=O)Cc1cccc2ccccc12` [Compound 1], in series [6], the “MAF MDR1” value is reported as less than 20. Further, the IC50 is 25.3 µg/mL and 60.3 µM in the series with MCF-10A cells (Homo sapiens, MCF-10A, MTT, 24 h); 23.4 ± 1.12 µM in the series on MCF-7 cells [7]; 21.9 ± 0.5 µM with MDA-MB-231 cells [8]. The “SIMCF-7 (selectivity index)” value with MCF-10A cells (IC50 MCF-10A/IC50 MCF-7) was 2.57. Besides, the “SIMDA-MB-231 (selectivity index)” value with MCF-10A cells (IC50 MCF-10A/IC50 MDA-MB-231) is 2.75. For the same compound, the “IC50 MCF-7” value in the series on MCF-7 cells [7] is 9.82 ± 0.47 µg/mL (≈ 23.4 µM). The cells undergoing autophagy in the series on MCF-7 cells [1] (MCF-7, 10 µg/mL) is listed as 2.5 ± 0.2%; in the series on MCF-7 cells [1] (MCF-7, 20 µg/mL) it was 11.5 ± 1.2%; in the series on MDA-MB-231 cells [2] (MDA-MB-231, 10 µg/mL (lower end of printed range)), 3.0 ± 0.2%; in the series on MDA-MB-231 cells [2] (MDA-MB-231, 20 µg/mL (upper end of printed range)), 5.5 ± 0.9%. The “IC50 MDA-MB-231” value in the series on MDA-MB-231 cells [8] is on record as 9.21 ± 0.21 µg/mL (≈ 21.9 µM). In addition, in the series on MCF-7 cells [9], the “cells in G2/M phase” value worked out at 33.6%. Besides, the “cells in S phase” value in the series with MCF-7 cells [9] came to 35.9%. For the same compound, in the series with MCF-7 cells [10], the “antiproliferative activity, times stronger than etoposide” value is 46 times. Besides, the “selectivity index (SI), cancer vs normal (non-cancerous) cells” value with MCF-7 cells [10] is on record as 46.8.
